Measured values reported in article PMC4749642, “Evaluation of anticonvulsant and antinociceptive properties of new N-Mannich bases derived from pyrrolidine-2,5-dione and 3-methylpyrrolidine-2,5-dione” (Naunyn-Schmiedeberg's Archives of Pharmacology, 2015).
“And” between values parts separate entries of the source, which are not always exact repeats. Equal values may be shown once. Marks after values point to notes of the source that are not given here.

Key:
mice [1] = experiment: Electroconvulsive threshold test (MEST test); type: in vivo, mouse
mice [2] = experiment: Pilocarpine-induced seizure test; type: in vivo, mouse
Procedure: (§1) Male CD-1 mice weighing 18–24 g were used in the in vivo experiment. The animals were kept at room temperature of 20 ± 2 °C under standard conditions (12:12 h light-dark cycle, standard pellet diet, tap water). All the experiments were performed between 8 a.m. and 3 p.m. For the experiments, the animals were selected in a random way and sacrificed by cervical dislocation immediately after the assay. The experimental protocol was approved by the Local Ethics Commission for Animal Experiments of the Jagiellonian University in Cracow, and all experiences were conducted in accordance with the 1996 NIH Guide for the Care and Use of Laboratory Animals.
(§2) The tested compounds 12 (N-[{4-(3,4-dichlorophenyl)-piperazin-1-yl}-methyl]-3-methylpyrrolidine-2,5-dione), 13 (N-[{4-(3-trifluoromethylphenyl)-piperazin-1-yl}-methyl]-3-methylpyrrolidine-2,5-dione), 15 (N-[{4-(3-methylphenyl)-piperazin-1-yl}-methyl]-3-methylpyrrolidine-2,5-dione), 23 (N-[{4-(3,4-dichlorophenyl)-piperazin-1-yl}-methyl]-pyrrolidine-2,5-dione), and 24 (N-[{4-(3-trifluoromethylphenyl)-piperazin-1-yl}-methyl]-pyrrolidine-2,5-dione) were synthesized at the Department of Medicinal Chemistry, Jagiellonian University Medical College in Cracow (Scheme 1). The synthesis of the investigated compounds was described earlier (Rybka et al. [2014]). The investigated compounds were suspended in a 0.5 % aqueous solution of methylcellulose (Loba Chemie, Germany). Lacosamide (Vimpat, UCB Pharma, Belgium), pilocarpine (Sigma-Aldrich, Germany), scopolamine butylbromide (Sigma-Aldrich, Germany), and formaldehyde (POCh, Poland) were dissolved in distilled water. Agents were administered intraperitoneally (i.p.) at a volume of 0.1 ml/10 g. Control animals were administered an equivalent volume of vehicle (0.5 % aqueous solution of methylcellulose) via the same route as the test compounds.
The experimental procedure was originally described by Turski et al. ([1987]). Seizures were induced in mice by i.p. injection of pilocarpine at a dose of 400 mg/kg. Forty-five minutes before pilocarpine, animals were also pretreated with scopolamine butylbromide (1 mg/kg, i.p.) to reduce peripheral autonomic side effects and masticatory and stereotyped movements (Kowalczyk et al. [2014]). Direct observation was performed for 60 min to monitor the latency time to the onset of the limbic seizures, characterized by a subsequent development of behavioral symptoms, such as tremor, head bobbing, and myoclonic movements of the forelimbs progressing to recurrent myoclonic convulsions with rearing, salivation, falling, and status epilepticus (Łuszczki et al. [2008]; Turski [2000]).

V. harveyi BB7 [3] = experiment: Vibrio harveyi antimutagenicity assay (vs NQNO), BB7 strain; type: cell-based; settings: for inhibition of NQNO-induced mutagenicity in BB7 strain (in words): NQNO 40 ng/ml; for Antimutagenicity BB7 number of revertants Mean ± SD: test compound plus NQNO 40 ng/ml (NQNO line: mutagen only); for Antimutagenicity BB7 Inhib. (%) of mutagenicity: test compound plus NQNO 40 ng/ml, 25–40 % moderate, 40 % or more strong
Procedure: (§3) Two V. harveyi strains were used in the experiments: wild-type BB7 and genetically modified BB7XM (the UV-hypersensitive strain bearing plasmid pAB91273), which were described previously by Czyż et al. ([2000]).
(§4) Antimutagenicity assay was performed according to previously described procedures (Czyż et al. [2002]; Pękala et al. [2013]). […] This was calculated as follows: Inhibition (%) = 100 − [(R1/R2) × 100], where R1 is the number of revertants per plate induced by test compound plus mutagen and R2 is the number of revertants in the plate containing only the mutagen (Słoczyńska et al. [2010]). No antimutagenic effect was considered when the inhibition was less than 25 %; a moderate effect for an inhibition value between 25 and 40 % and a strong antimutagenicity were recorded for inhibition higher than 40 % (Gulluce et al. [2010]).

V. harveyi BB7XM [4] = experiment: Vibrio harveyi mutagenicity assay, BB7XM strain; settings: 40 ng/ml; for Mutagenicity BB7XM M.I. (mutagenic index): positive assay when M.I. ≥ 2
Procedure: as §3
(§5) Mutagenicity assay was performed as described previously (Czyż et al. [2000]). All experiments were carried out in triplicate and the results were expressed as mutagenic index (M.I. = the number of revertant colonies induced in the tested sample/the number of spontaneous revertants in the negative control) (Gulluce et al. [2010]).

V. harveyi BB7XM [5] = experiment: Vibrio harveyi antimutagenicity assay (vs NQNO), BB7XM strain; type: cell-based; settings: for Antimutagenicity BB7XM number of revertants Mean ± SD: test compound plus NQNO 40 ng/ml (NQNO line: mutagen only); for Antimutagenicity BB7XM Inhib. (%) of mutagenicity: test compound plus NQNO 40 ng/ml, 25–40 % moderate, 40 % or more strong
Procedure: as §3, §4

mice [6] = experiment: Formalin hind paw test; type: in vivo, mouse; settings: dose 30 mg/kg i.p.; for reduction of the duration of the licking response, first (neurogenic) phase: 0–5 min after 5 % formalin; for antinociceptive effect (reduction of licking response), second (late) phase: 15–30 min after 5 % formalin
Procedure: as §1, §2
Antinociceptive activity in the formalin hind paw test was examined according to Laughlin et al. ([2002]). Twenty microliters of a 5 % formalin solution was injected intraplantarly (i.pl.) into the right hind paw of the mouse. […] Time (in seconds) spent on licking or biting the injected hind paw in selected intervals, 0–5 and 15–30 min, was measured in each experimental group and was an indicator of nociceptive behavior. In mice, intraplantarly injection of diluted formalin produces a biphasic nocifensive behavioral response (i.e., licking or biting the injected hind paw). The acute nociceptive phase lasts for the first 5 min, whereas the second inflammatory phase occurs between 15 and 30 min after formalin injection.

mice [7] = experiment: Hot plate test; type: in vivo, mouse; settings: dose 30 mg/kg i.p.; for latency time to pain reaction: mean ± SEM, vehicle 27.51 ± 1.36 s, cutoff 60 s
Procedure: as §1, §2
In the hot plate test, the mice were i.p. pretreated either with the test compound or vehicle before placing the animal on the hot plate apparatus (Panlab/Harvard Apparatus, Spain). This apparatus has an electrically heated surface and is supplied with a temperature controller that maintains the temperature at 55–56 °C. The time to the first reaction (licking or jumping) of mice to a nociceptive stimulus was recorded. The cutoff time was established to 60 s to avoid paw tissue damage (Sałat et al. [2014]).

mice [8] = experiment: Spontaneous locomotor activity (photoresistor actometers); type: in vivo, mouse
Procedure: as §1, §2
Locomotor activity was measured with photoresistor actometers (Ugo Basile, Italy) connected to a counter for the recording of light-beam interruptions. Mice were individually placed in plastic cages for 30 min habituation period, and then the number of light-beam crossings was counted for a 30-min session. The cages were cleaned up with 70 % ethanol after each mouse.

V. harveyi BB7 [9] = experiment: Vibrio harveyi mutagenicity assay, BB7 strain; settings: 40 ng/ml; for Mutagenicity BB7 M.I. (mutagenic index): positive assay when M.I. ≥ 2
Procedure: as §3, §5

[10] = tested on: L-type calcium channel (dihydropyridine site); experiment: L-type Ca channel (dihydropyridine site) [3H]nitrendipine binding assay; settings: rat cerebral cortex
[11] = dose 30 mg/kg i.p., 4 h before the test, value with 95 % confidence interval
[12] = dose 100 mg/kg i.p., 4 h before pilocarpine 400 mg/kg
[13] = dose 30 mg/kg i.p., 30-min session
[14] = dose 100 mg/kg i.p., 4 h before pilocarpine

Compound	CS50 (mA) (CI) (mice [1]; [11])	Latency to status epilepticus (s) ± SEM (mice [2]; [12]) [s]	inhibition of NQNO-induced mutagenicity in BB7 strain (in words) (V. harveyi BB7 [3])	Antimutagenicity BB7 number of revertants Mean ± SD (V. harveyi BB7 [3])	Antimutagenicity BB7 Inhib. (%) of mutagenicity (V. harveyi BB7 [3])	Mutagenicity BB7XM number of revertants Mean ± SD (V. harveyi BB7XM [4])	Mutagenicity BB7XM M.I. (mutagenic index) (V. harveyi BB7XM [4])	Antimutagenicity BB7XM number of revertants Mean ± SD (V. harveyi BB7XM [5])	Antimutagenicity BB7XM Inhib. (%) of mutagenicity (V. harveyi BB7XM [5])	reduction of the duration of the licking response, first (neurogenic) phase (mice [6]) [%]	antinociceptive effect (reduction of licking response), second (late) phase (mice [6]) [%]	latency time to pain reaction (mice [7]) [s]	influence on locomotor activity (number of crossings, in words) (mice [8]; [13])	Mutagenicity BB7 number of revertants Mean ± SD (V. harveyi BB7 [9])	Mutagenicity BB7 M.I. (mutagenic index) (V. harveyi BB7 [9])	Anticonvulsant effect (%) (prolongation of latency time to seizures vs vehicle) (mice [2]; [14])	prolongation of latency time to pain reaction vs vehicle (mice [7]) [%]	further results
CC1CC(=O)N(CN2CCN(c3cccc(C(F)(F)F)c3)CC2)C1=O (stereo not shown) [Compound 13, N-[{4-(3-trifluoromethylphenyl)-piperazin-1-yl}-methyl]-3-methylpyrrolidine-2,5-dione]	9.37 (5.47–16.07)* mA	296.7 ± 9.63	moderate inhibitors	25 ± 4	(35) %	20 ± 5	1.7	20 ± 4	(16) %	79	89	56.03 ± 1.75	significantly reduced the number of crossings	22 ± 3	1.4			
O=C1CCC(=O)N1CN1CCN(c2cccc(C(F)(F)F)c2)CC1 [Compound 24, N-[{4-(3-trifluoromethylphenyl)-piperazin-1-yl}-methyl]-pyrrolidine-2,5-dione]	14.01 (9.05–21.70)*** mA	346.7 ± 25.92	weakly suppressed	31 ± 5	(18) %	19 ± 1	1.6	29 ± 3	(0) %	62	94	47.23 ± 3.77	significantly reduced the number of crossings	25 ± 4	1.6	1.2	72	increase of electroconvulsive threshold (ECT) vs vehicle (mice [1]; dose 10 mg/kg i.p., 4 h before the test): 68%; CS50 (mA) (CI) (mice [1]; dose 10 mg/kg i.p., 4 h before the test, value with 95 % confidence interval): 11.11 (8.12–15.20)*** mA; increase of electroconvulsive threshold (ECT) vs vehicle (mice [1]; dose 30 mg/kg i.p., 4 h before the test): 114%
COC[C@@H](NC(C)=O)C(=O)NCc1ccccc1 [Lacosamide, reference compound]										69	90		significant decrease of locomotor activity					CS50 (mA) (CI) (mice [1]; dose 10 mg/kg i.p., 30 min before the test, 10 mg/kg): >25 mA; CS50 (mA) (CI) (mice [1]; dose 10 mg/kg i.p., 30 min before the test, listed as lacosamide, 10 mg/kg): above 25 mA; Anticonvulsant effect (%) (prolongation of latency time to seizures vs vehicle) (mice [2]; dose 30 mg/kg i.p., 30 min before pilocarpine): 12.8%; Latency to status epilepticus (s) ± SEM (mice [2]; dose 30 mg/kg i.p., 30 min before pilocarpine 400 mg/kg): 382.1 ± 22.86 s; Latency to status epilepticus (s) ± SEM (mice [2]; dose 40 mg/kg i.p., 30 min before pilocarpine 400 mg/kg): 507.7 ± 52.11 s; Anticonvulsant effect (%) (prolongation of latency time to seizures vs vehicle) (mice [2]; dose 40 mg/kg i.p., 30 min before pilocarpine, 40 mg/kg): 50% and 49.8%; antinociceptive activity in the hot plate test (in words) (mice [7]): significantly prolonged the latency time
O=C1NC(=O)C(c2ccccc2)(c2ccccc2)N1 [Phenytoin, reference compound]																		% inhibition of control specific binding ([10]; 10 μM): 6.6%; % inhibition of control specific binding ([10]; 100 μM): 57.8%
N-[{4-(3-methylphenyl)-piperazin-1-yl}-methyl]-3-methylpyrrolidine-2,5-dione [Compound 15]	8.11 (7.12–9.24)*** mA	406.0 ± 59.77								52	66	47.12 ± 6.14				18.5	71	influence on locomotor activity (number of crossings, in words) (mice [8]; mouse, in vivo, ip, 30 mg/kg): significantly reduced the number of crossings
